Here are results for 27 compounds from ChEMBL document CHEMBL4765391, “Design, synthesis, and Structure-Activity Relationships (SAR) of 3-vinylindazole derivatives as new selective tropomyosin receptor kinases (Trk) inhibitors” (Eur J Med Chem, 2020).

The term IC50 denotes the midpoint of a concentration-inhibition curve.

For test [1], the target named is High affinity nerve growth factor receptor (Homo sapiens, UniProt P04629). As to the kind of experiment: Inhibition of TrkA (unknown origin) using Tyr1 peptide as substrate in presence of ATP measured after 2 hrs by FRET-based Z-Lyte kinase assay.
Test [2] has as its target BDNF/NT-3 growth factors receptor (Homo sapiens, UniProt Q16620). The test can be described thus: Inhibition of TrkB (unknown origin) using Tyr1 peptide as substrate in presence of ATP measured after 2 hrs by FRET-based Z-Lyte kinase assay.
Test [3] has as its system BaF3. The test can be described thus: Antiproliferative activity against mouse BaF3 cells assessed as cell viability measured after 72 hrs by Micro plate reader method. The test is classed as functional, cell-based. The settings on record: BaF3, 72 h.
Test [4] concerns BaF3. The test can be described thus: Antiproliferative activity against mouse BaF3 cells transfected with wild type CD74-NTRK1 (unknown origin) assessed as cell viability measured after 72 hrs by Micro plate reader method. The settings on record: BaF3, 72 h.
For test [5], the system named is BaF3. As to the kind of experiment: Antiproliferative activity against mouse BaF3 cells transfected with wild type ETV6-NTRK2 (unknown origin) assessed as cell viability measured after 72 hrs by Micro plate reader method. The settings on record: BaF3, 72 h.
Test [6] has as its system BaF3. As to the kind of experiment: Antiproliferative activity against mouse BaF3 cells transfected with wild type ETV6-NTRK3 (unknown origin) assessed as cell viability measured after 72 hrs by Micro plate reader method. The settings on record: BaF3, 72 h.
For test [7], the system named is BaF3. As to the kind of experiment: Antiproliferative activity against mouse BaF3 cells transfected with wild type CD74-NTRK1 (unknown origin) harbouring G595R mutation assessed as cell viability measured after 72 hrs by Micro plate reader method. The test is classed as functional, cell-based. The settings on record: BaF3, 72 h.
The test system of test [8] is BaF3. As to the kind of experiment: Antiproliferative activity against mouse BaF3 cells transfected with wild type ETV6-NTRK2 (unknown origin) harbouring G639R mutation assessed as cell viability measured after 72 hrs by Micro plate reader method. It counts as functional, cell-based. The settings on record: BaF3, 72 h.
For test [9], the system named is BaF3. The test can be described thus: Antiproliferative activity against mouse BaF3 cells transfected with wild type CD74-NTRK1 (unknown origin) harbouring G667C mutation assessed as cell viability measured after 72 hrs by Micro plate reader method. It counts as functional, cell-based. The settings on record: BaF3, 72 h.
The test system of test [10] is BaF3. As to the kind of experiment: Antiproliferative activity against mouse BaF3 cells transfected with wild type ETV6-NTRK3 (unknown origin) harbouring G623R mutation assessed as cell viability measured after 72 hrs by Micro plate reader method. The test is classed as functional, cell-based. The settings on record: BaF3, 72 h.
The subject of test [11] is BaF3. As to the kind of experiment: Antiproliferative activity against mouse BaF3 cells transfected with wild type ETV6-NTRK3 (unknown origin) harbouring G696A mutation assessed as cell viability measured after 72 hrs by Micro plate reader method. The test is classed as functional, cell-based. The settings on record: BaF3, 72 h.

Chain of BDNF/NT-3 growth factors receptor (Q16620 whole entry): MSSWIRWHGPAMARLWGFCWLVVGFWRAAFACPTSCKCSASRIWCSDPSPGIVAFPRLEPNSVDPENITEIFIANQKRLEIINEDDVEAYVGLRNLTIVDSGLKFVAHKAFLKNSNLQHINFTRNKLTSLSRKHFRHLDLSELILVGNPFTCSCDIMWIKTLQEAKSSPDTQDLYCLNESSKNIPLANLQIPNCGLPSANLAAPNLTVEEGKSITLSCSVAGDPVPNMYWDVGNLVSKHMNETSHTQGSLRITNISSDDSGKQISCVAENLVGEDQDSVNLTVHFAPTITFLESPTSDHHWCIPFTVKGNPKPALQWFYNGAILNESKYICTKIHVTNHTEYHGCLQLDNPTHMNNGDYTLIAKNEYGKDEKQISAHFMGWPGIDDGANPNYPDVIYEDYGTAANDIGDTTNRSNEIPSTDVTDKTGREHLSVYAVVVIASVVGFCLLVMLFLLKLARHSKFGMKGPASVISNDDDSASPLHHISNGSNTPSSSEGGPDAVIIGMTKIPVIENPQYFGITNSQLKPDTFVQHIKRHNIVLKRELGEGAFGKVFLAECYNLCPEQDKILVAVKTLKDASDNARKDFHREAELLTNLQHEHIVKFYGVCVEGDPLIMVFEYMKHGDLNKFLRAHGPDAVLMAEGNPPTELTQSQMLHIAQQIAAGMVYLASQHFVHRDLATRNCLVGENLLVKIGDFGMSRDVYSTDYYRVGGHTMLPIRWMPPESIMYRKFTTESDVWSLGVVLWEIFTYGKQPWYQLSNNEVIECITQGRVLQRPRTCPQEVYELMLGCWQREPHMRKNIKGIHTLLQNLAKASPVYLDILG
Chain of High affinity nerve growth factor receptor (P04629 whole entry): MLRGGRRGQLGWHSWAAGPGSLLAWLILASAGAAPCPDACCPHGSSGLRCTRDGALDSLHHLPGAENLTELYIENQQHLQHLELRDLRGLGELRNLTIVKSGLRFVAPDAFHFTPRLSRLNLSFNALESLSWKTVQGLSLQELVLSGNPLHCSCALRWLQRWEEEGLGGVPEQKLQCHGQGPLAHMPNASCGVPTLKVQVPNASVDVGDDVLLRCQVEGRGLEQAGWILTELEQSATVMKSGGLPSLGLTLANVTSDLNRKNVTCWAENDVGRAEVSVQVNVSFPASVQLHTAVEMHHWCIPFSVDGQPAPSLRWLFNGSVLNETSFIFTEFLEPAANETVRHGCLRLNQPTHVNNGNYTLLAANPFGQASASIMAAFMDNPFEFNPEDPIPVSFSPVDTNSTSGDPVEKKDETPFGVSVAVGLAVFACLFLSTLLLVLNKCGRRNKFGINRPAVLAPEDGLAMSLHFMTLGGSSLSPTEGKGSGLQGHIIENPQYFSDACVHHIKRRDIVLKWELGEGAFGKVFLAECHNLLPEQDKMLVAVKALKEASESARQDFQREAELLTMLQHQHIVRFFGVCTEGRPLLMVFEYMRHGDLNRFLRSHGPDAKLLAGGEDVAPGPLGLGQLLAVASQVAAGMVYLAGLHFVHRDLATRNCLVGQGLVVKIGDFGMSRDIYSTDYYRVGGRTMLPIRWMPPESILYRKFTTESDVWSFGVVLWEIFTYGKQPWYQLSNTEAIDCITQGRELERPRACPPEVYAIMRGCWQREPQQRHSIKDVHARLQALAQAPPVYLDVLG

Regarding `Fc1cc(F)cc(NCc2ccc3[nH]nc(/C=C/c4ccccn4)c3c2)c1`, the IC50 is 10.4 nM in test [1] and 3.5 nM in test [2].

As for `Fc1cc(F)cc(OCc2ccc3[nH]nc(/C=C/c4ccccn4)c3c2)c1`, the values for the IC50 in test [1] and in test [2] were 20.9 nM and 7.2 nM, respectively.

For `Fc1cc(F)cc(Sc2ccc3[nH]nc(/C=C/c4ccccn4)c3c2)c1`, the IC50 in test [1] is 23.9 nM; in test [2], 4.8 nM.

On to `Fc1cc(F)cc(CNc2ccc3[nH]nc(/C=C/c4ccccn4)c3c2)c1`, for which the IC50 in test [1] worked out at 1.5 nM; in test [2], 8.3 nM; with BaF3 [3], 489 nM; with BaF3 [4] it was 35 nM; with BaF3 [5] it was 34 nM; in the test on BaF3 [6], 14 nM.

Take `Fc1cc(F)cc(Nc2ccc3[nH]nc(/C=C/c4ccccn4)c3c2)c1`: in [2], the IC50 amounted to 30.7 nM.

For the compound `Fc1ccc(CNc2ccc3[nH]nc(/C=C/c4ccccn4)c3c2)cc1`, the IC50 was determined as 49.3 nM in [1] and 78.9 nM in test [2].

Turning to `Fc1cc(CNc2ccc3[nH]nc(/C=C/c4ccccn4)c3c2)cc(C(F)(F)F)c1`, the IC50 in test [1] amounted to 76.3 nM; in test [2], 245 nM.

Take `Fc1cc(F)cc(COc2ccc3[nH]nc(/C=C/c4ccccn4)c3c2)c1`: the IC50 in [1] was found to be 13.2 nM; in test [2], 1.2 nM; in the test on BaF3 [4], 133 nM; with BaF3 [5], 169 nM; in the test on BaF3 [6] it was 118 nM.

Consider `CN(Cc1cc(F)cc(F)c1)c1ccc2[nH]nc(/C=C/c3ccccn3)c2c1`, for which the IC50 in test [1] turned out to be 29 nM; in [2] it was 8 nM.

`O=C(Nc1ccc2[nH]nc(/C=C/c3ccccn3)c2c1)c1cc(F)cc(F)c1`: the IC50 was determined as 189 nM in [1] and 244 nM in [2].

As for `O=C(Nc1cnn2ccc(N3CCC[C@@H]3c3cc(F)ccc3F)nc12)N1CC[C@H](O)C1` [LAROTRECTINIB], the IC50 is more than 10000 nM with BaF3 [3]; 16 nM with BaF3 [4]; 40 nM in the test on BaF3 [5]; 13 nM in the test with BaF3 [6]; 539 nM in the test with BaF3 [7]; 2240 nM in the test on BaF3 [8]. The values for the IC50 with BaF3 [9], with BaF3 [10] and with BaF3 [11] were 184 nM, 1200 nM and 54 nM, respectively.

Take `O=C(Nc1cc(F)cc(F)c1)c1ccc2[nH]nc(/C=C/c3ccccn3)c2c1`: the IC50 in test [1] and in [2] was more than 1000 nM in each case.

On to `CN(Cc1ccc2[nH]nc(/C=C/c3ccccn3)c2c1)c1cc(F)cc(F)c1`, for which the IC50 in test [1] stood at 12 nM; in test [2], 42.5 nM.

On to `Fc1cc(F)cc(CCc2ccc3[nH]nc(/C=C/c4ccccn4)c3c2)c1`, for which the results for the IC50 in test [1] and in test [2] were 3.7 nM and 8.5 nM, respectively.

As for `COc1cc(F)cc(CNc2ccc3[nH]nc(/C=C/c4ccccn4)c3c2)c1`, the 50% inhibitory concentration (IC50) in test [1] worked out at 3.1 nM; in [2], 26.7 nM.

As for `Cc1cc(F)cc(CNc2ccc3[nH]nc(/C=C/c4ccccn4)c3c2)c1`, the IC50 in [1] turned out to be 10.4 nM; in test [2], 50.1 nM.

Turning to `Fc1cc(Br)cc(CNc2ccc3[nH]nc(/C=C/c4ccccn4)c3c2)c1`, the results for the IC50 in test [1] and in test [2] were 10.4 nM and 30.6 nM, respectively.

As for `N#Cc1cc(F)cc(CNc2ccc3[nH]nc(/C=C/c4ccccn4)c3c2)c1`, the IC50 in [1] was determined as 3.5 nM; in test [2], 17.7 nM.

With `CN(c1cc(F)cc(F)c1)c1ccc2[nH]nc(/C=C/c3ccccn3)c2c1`, the IC50 in [1] stood at 40.6 nM; in [2] it was 23.6 nM.

Regarding `Fc1cccc(CNc2ccc3[nH]nc(/C=C/c4ccccn4)c3c2)c1`, the IC50 in test [1] stood at 5.7 nM; in [2] it was 4.9 nM.

Take `Fc1cc(F)cc(-c2ccc3[nH]nc(/C=C/c4ccccn4)c3c2)c1`: the IC50 in [1] was 254 nM; in test [2], 729 nM.

With `Fc1cc(F)cc(C#Cc2ccc3[nH]nc(/C=C/c4ccccn4)c3c2)c1`, the IC50 in test [1] and in test [2] was more than 1000 nM each time.

In the case of `Fc1ccccc1CNc1ccc2[nH]nc(/C=C/c3ccccn3)c2c1`, the values for the IC50 in test [1] and in test [2] were 8.8 nM and 36.2 nM, respectively.

Consider `Fc1cc(F)cc(Cc2ccc3[nH]nc(/C=C/c4ccccn4)c3c2)c1`, for which the IC50 in test [1] stood at 7.6 nM; in test [2], 1.3 nM; in the test on BaF3 [4] it was 133 nM; in the test with BaF3 [5], 161 nM; in the test with BaF3 [6] it was 125 nM.

With `Fc1cc(Cl)cc(CNc2ccc3[nH]nc(/C=C/c4ccccn4)c3c2)c1`, the results for the IC50 in test [1] and in test [2] were 2 nM and 15.4 nM, respectively.

Consider `C(=C\c1n[nH]c2ccc(NCc3ccccc3)cc12)/c1ccccn1`, for which the figures for the IC50 in test [1] and in test [2] were 10.6 nM and 1.1 nM, respectively.

On to `Fc1cc(F)cc(Oc2ccc3[nH]nc(/C=C/c4ccccn4)c3c2)c1`, for which the figures for the IC50 in test [1] and in [2] were 23.3 nM and 4 nM, respectively.
